pIC50: −log10 of the molar value.
Tests used:
[1] = molecular target: T1, BACE1 (Homo sapiens, UniProt P56817); assay: BACE1 cellular αLisa assay in SKNBE2 cells, Abeta 1-42 (Test Example 2-3); format: cell-based; design: endogenous in cells; host or cells: SKNBE2 human neuroblastoma cells expressing hAPP695; conditions: SKNBE2 cells expressing hAPP695, 18 hours incubation, read-out: Cellular αLisa assay in SKNBE2 cells Abeta 42 pIC50 (converted)
Procedure: In two αLisa assays the levels of Abeta 1-42 or Abeta total produced and secreted into the medium of human neuroblastoma SKNBE2 cells are quantified. The assays are based on the human neuroblastoma SKNBE2 expressing the wild type Amyloid Precursor Protein (hAPP695). The compounds are diluted and added to these cells, incubated for 18 hours and then measurements of Abeta 1-42 or Abeta total are taken. Abeta 1-42 or Abeta total are measured by sandwich αLisa using biotinylated antibody AbN/25 attached to streptavidin coated donor beads and antibody cAb42/26 or Ab 4G8 conjugated acceptor beads for the detection of Abeta 1-42 or Abeta total respectively. In the presence of Abeta 1-42 or Abeta total, the beads come into close proximity. The excitation of the donor beads provokes the release of singlet oxygen molecules that trigger a cascade of energy transfer in the acceptor beads, resulting in light emission. Light emission is measured after 1 h incubation (excitation at […] and emission at 615 nm).
(§1) Data are analysed using Screener (Registered trademark) (Genedata, Switzerland). Data were normalized and % inhibition=100−[(sample−LC)/(HC−LC))*100], was plotted versus the log concentration of the test compound. Curves were analysed using non-linear regression analysis and IC50 values (inhibitory concentration causing 50% inhibition of activity) were derived from individual curves.
LC=Median of the low control values • =Low control: Reaction without enzyme
HC=Median of the High control values • =High Control: Reaction with enzyme
(§2) % Inhibition=100−[(sample−LC)/(HC−LC)*100]

[2] = molecular target: T2, BACE2 (Mus musculus, UniProt Q9JL18); assay: BACE2 cellular assay in MIN6 cells, secreted TMEM27 (Test Example 2-5); format: cell-based; conditions: 24 hours incubation, secreted TMEM27 by MSD, read-out: Cellular MSD assay in Min6 cells TV1EV127 pIC50 (converted)
T2 construct: endogenous in cells; host or cells: MIN6 mouse insulinoma cells expressing Flag-V5-TMEM27-HA
T2 sequence (Q9JL18 63-514): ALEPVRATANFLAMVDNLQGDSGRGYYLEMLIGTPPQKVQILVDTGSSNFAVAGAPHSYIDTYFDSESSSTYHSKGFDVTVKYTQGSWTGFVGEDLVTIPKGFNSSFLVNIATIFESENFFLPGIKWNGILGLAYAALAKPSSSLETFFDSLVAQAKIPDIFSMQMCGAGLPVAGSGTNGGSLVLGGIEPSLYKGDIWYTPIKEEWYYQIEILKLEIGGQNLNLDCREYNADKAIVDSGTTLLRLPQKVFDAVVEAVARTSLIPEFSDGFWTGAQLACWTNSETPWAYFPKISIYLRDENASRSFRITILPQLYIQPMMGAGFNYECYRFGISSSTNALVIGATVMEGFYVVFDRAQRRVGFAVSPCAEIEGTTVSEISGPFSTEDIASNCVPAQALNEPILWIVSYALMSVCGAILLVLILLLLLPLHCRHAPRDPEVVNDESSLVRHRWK
Procedure: Cellular BACE2 activity was measured by determination of the level of secreted TMEM27 into the medium of MIN6 cells using an MSD platform. The assay is based on the mouse insulinoma MIN6 cells expressing Flag-V5-TMEM27-HA. When BACE2 cleaves TMEM27 the N-terminal part of TMEM27 with the V5-Flag tag will be shed into the medium, and the amount of this cleaved product is measured with the MSD assay.
Briefly in a 96-well format the cells are incubated for 24 hours in the presence of the compound followed by the measurement of secreted TMEM27 in the medium via MSD using FLAG-L5 coating antibody and a V5 detection antibody. When TMEM27 is captured on the electrode surface of the multi-array microplate the detection antibody, conjugated with the sulfo-Tag™, is in close proximity of the surface, it generates a light via a series of reduction and oxidation reactions. The intensity of the emitted light is measured with the MSD imager to provide a quantitative measure for the analytes in the sample.
as §1
(§3) LC=Median of the low control values
(§4) =Low control: Reaction without enzyme
(§5) HC=Median of the High control values
(§6) =High Control: Reaction with enzyme
as §2

[3] = molecular target: T1, BACE1; assay: BACE1 biochemical FRET based assay - Method 1 (Test Example 2-2); conditions: 0.04 μg/mL BACE1, 450 minutes, Citrate buffer pH 5.0, read-out: BACE1 Biochemical FRET based assay - Method 1 PIC50 (converted)
From the text: (§7) This assay is a Fluorescence Resonance Energy Transfer Assay (FRET) based assay. The substrate for this assay is an APP derived 13 amino acids peptide that contains the ‘Swedish’ Lys-Met/Asn-Leu mutation of the amyloid precursor protein (APP) beta-site secretase cleavage site. This substrate also contains two fluorophores: (7-methoxycoumarin-4-yl) acetic acid (Mca) is a fluorescent donor with excitation wavelength at 320 nm and emission at 405 nm and 2,4-dinitrophenol (Dnp) is a proprietary quencher acceptor. […] Upon cleavage by BACE1, the fluorophore Mca is separated from the quenching group Dnp, restoring the full fluorescence yield of the donor. The increase in fluorescence is linearly related to the rate of proteolysis.
(§8) Briefly in a 384-well format recombinant BACE1 protein in a final concentration of 0.04 μg/mL is incubated for 450 minutes at room temperature with […] substrate in incubation buffer (final concentrations: 33.3 mM Citrate buffer pH 5.0, 0.033% PEG, 3% DMSO) in the absence or presence of compound. Next the amount of proteolysis is directly measured by fluorescence measurement at T=0′-120′ and T=450′ (excitation at 320 nm and emission at 405 nm). Results are expressed in RFU (Relative Fluorescence Units), as difference between T450 and Tx (Tx is chosen depending on the reaction speed between 0 and 120 minutes.).
as §1, §3, §4, §5, §6, §2

[4] = molecular target: T3, BACE2 (Homo sapiens, UniProt Q9Y5Z0); assay: BACE2 biochemical FRET based assay (Test Example 2-4); conditions: recombinant BACE2 0.4 μg/mL, 10 μM substrate, 450 minutes, pH 5.0; read-out: BACE2 Biochemical FRET based assay pIC50 (converted)
T3 sequence (Q9Y5Z0 63-518): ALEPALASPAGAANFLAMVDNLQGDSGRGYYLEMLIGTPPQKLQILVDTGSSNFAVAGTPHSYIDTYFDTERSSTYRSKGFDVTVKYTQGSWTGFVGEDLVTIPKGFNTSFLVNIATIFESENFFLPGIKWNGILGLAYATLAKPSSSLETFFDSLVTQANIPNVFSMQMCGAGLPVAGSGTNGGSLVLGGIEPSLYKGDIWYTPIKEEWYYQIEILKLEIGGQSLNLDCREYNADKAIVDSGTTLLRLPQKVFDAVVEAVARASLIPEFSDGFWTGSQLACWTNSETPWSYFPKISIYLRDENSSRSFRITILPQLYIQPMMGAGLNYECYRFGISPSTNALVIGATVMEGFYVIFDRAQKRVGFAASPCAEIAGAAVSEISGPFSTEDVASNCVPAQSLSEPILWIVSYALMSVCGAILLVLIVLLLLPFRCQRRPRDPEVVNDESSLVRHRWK
From the text: as §7, with “assay” for “assay is an APP derived 13 amino acids peptide that”, “beta-secretase” for “beta-site secretase”, “the beta-secretase,” for “BACE1,”
Briefly in a 384-well format recombinant BACE2 protein in a final concentration of 0.4 μg/mL is incubated for 450 minutes at room temperature with 10 μM substrate in incubation buffer (final concentrations: 33.3 mM Citrate buffer pH 5.0, 0.033% PEG, 2% DMSO) in the absence or presence of compound. Next the amount of proteolysis is directly measured by fluorescence measurement at T=0 and T=450 (excitation at 320 nm and emission at 405 nm). Results are expressed in RFU (Relative Fluorescence Units), as difference between T450 and TO.
as §1, §3, §4, §5, §6, §2

[5] = molecular target: T1, BACE1; assay: BACE1 biochemical FRET based assay (Test Example 2-1); conditions: for selectivity: BACE2 IC50 over BACE1 IC50 (FRET); for pIC50: FRET, 0.04 μg/mL BACE1, 450 minutes, Citrate buffer pH 5.0
From the text: as §7, §8
A best-fit curve is fitted by a minimum sum of squares method to the plot of % Controlmin versus compound concentration. From this an IC50 value (inhibitory concentration causing 50% inhibition of activity) can be obtained.

[6] = molecular target: T3, BACE2; assay: BACE2 biochemical FRET based assay (Test Example 2-1 (2)); conditions: 0.4 μg/mL BACE2, 450 minutes, Citrate buffer pH 5.0
From the text: This assay is a Fluorescence Resonance Energy Transfer Assay (FRET) based assay. The substrate for this assay contains the ‘Swedish’ Lys-Met/Asn-Leu mutation of the amyloid precursor protein (APP) beta-secretase cleavage site. This substrate also contains two fluorophores: (7-methoxycoumarin-4-yl) acetic acid (Mca) is a fluorescent donor with excitation wavelength at 320 nm and emission at 405 nm and 2,4-dinitrophenol (Dnp) is a proprietary quencher acceptor. […] Upon cleavage by the beta-secretase, the fluorophore Mca is separated from the quenching group Dnp, restoring the full fluorescence yield of the donor. The increase in fluorescence is linearly related to the rate of proteolysis. Briefly in a 384-well format recombinant BACE2 protein in a final concentration of 0.4 μg/mL was incubated for 450 minutes at room temperature with 10 μM substrate in incubation buffer (final concentrations: 33.3 mM Citrate buffer pH 5.0, 0.033% PEG, 2% DMSO) in the absence or presence of compound. Next the amount of proteolysis was directly measured by fluorescence measurement at T=0 and T=450 (excitation at 320 nm and emission at 405 nm). Results were expressed in RFU (Relative Fluorescence Units), as difference between T450 and TO.
A best-fit curve was fitted by a minimum sum of squares method to the plot of % Controlmin versus compound concentration. From this an IC50 value (inhibitory concentration causing 50% inhibition of activity) can be obtained.

T1 sequence (P56817 46-501): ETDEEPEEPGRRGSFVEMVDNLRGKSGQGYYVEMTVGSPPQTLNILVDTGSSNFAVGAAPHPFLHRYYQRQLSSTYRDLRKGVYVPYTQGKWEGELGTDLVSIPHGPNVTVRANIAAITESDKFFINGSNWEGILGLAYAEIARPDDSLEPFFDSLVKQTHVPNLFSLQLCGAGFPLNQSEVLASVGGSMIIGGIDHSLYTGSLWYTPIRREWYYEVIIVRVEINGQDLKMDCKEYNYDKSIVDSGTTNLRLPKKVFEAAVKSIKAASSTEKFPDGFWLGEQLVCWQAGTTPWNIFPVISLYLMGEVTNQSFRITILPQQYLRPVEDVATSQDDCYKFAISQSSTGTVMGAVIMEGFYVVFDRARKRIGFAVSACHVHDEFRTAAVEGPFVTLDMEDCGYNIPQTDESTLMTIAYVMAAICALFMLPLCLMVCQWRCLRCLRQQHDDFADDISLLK

SMILES	IC50 [1]	IC50 [2]	IC50 [3]	IC50 [4]	selectivity [5]	pIC50 [5]	pIC50 [6]
NC1=N[C@](CF)(c2cc(NC(=O)c3cc4c(cn3)OC(F)(F)CO4)ccc2F)[C@H]2CO[C@H](CF)C[C@H]2O1 [Compound I-057]					389	8.59	6.00
C[C@@H]1COc2cc(C(=O)Nc3ccc(F)c([C@]4(C)CS(=O)(=O)N(C)C(N)=N4)c3)ncc2O1 [Compound I-010]					19.5	8.16	6.87
[2H]C1([2H])Oc2cnc(C(=O)Nc3ccc(F)c([C@]4(C)CS(=O)(=O)N(C)C(N)=N4)c3)cc2OC1([2H])[2H] [Compound I-001]					60.0	8.92	7.14
CN1C(N)=N[C@](C)(c2cc(NC(=O)c3ncc4c(c3Cl)OCCO4)ccc2F)CS1(=O)=O [Compound I-003]					40.7	8.55	6.95
C[C@H]1COc2cc(C(=O)Nc3ccc(F)c([C@]4(C)CS(=O)(=O)N(C)C(N)=N4)c3)ncc2O1 [Compound I-008]					22.9	8.02	6.66
C[C@@H]1C[C@H]2OC(N)=N[C@](CF)(c3cc(NC(=O)c4cc5c(cn4)OCCO5)ccc3F)[C@H]2CO1 [Compound I-054]					646	8.03	5.22
CN1C(N)=N[C@](C)(c2cc(NC(=O)c3cc4c(cn3)OCCO4)ccc2F)CS1(=O)=O [Compound I-005]					38.0	8.70	7.11

Next, values leading:

IC50 [1]	IC50 [2]	IC50 [3]	IC50 [4]	selectivity [5]	pIC50 [5]	pIC50 [6]	SMILES
3.31 nM	295 nM	3.24 nM	155 nM				CCS(=O)(=O)C1(CF)CCC(C)(c2cc(NC(=O)c3cc4c(cn3)OC(F)(F)CO4)ccc2F)N=C1N (centres unmarked) [II-34]
22.9 nM	427 nM	11.7 nM	331 nM				Cc1c(C(=O)Nc2ccc(F)c(C3(CF)CCC(C)(S(C)(=O)=O)C(N)=N3)c2)ncc2c1OCC(F)(F)O2 (centres unmarked) [II-15]
2.57 nM	661 nM	4.07 nM	372 nM				[2H]C1([2H])Oc2cnc(C(=O)Nc3ccc(F)c(C4(CF)CCC(C)(S(C)(=O)=O)C(N)=N4)c3)c(F)c2OC1([2H])[2H] (centres unmarked) [II-12]
3.55 nM	363 nM	6.46 nM	331 nM				CC1(S(C)(=O)=O)CCC(CF)(c2cc(NC(=O)c3cc4c(cn3)OCC(F)O4)ccc2F)N=C1N (centres unmarked) [II-11]
9.77 nM	617 nM	5.37 nM	295 nM				CCS(=O)(=O)[C@]1(CF)CC[C@@](C)(c2cc(NC(=O)c3cc4c(cn3)OC(F)(F)O4)ccc2F)N=C1N [II-35]
